Measurements from patent publication US20200069648A1, “HALOALLYLAMINE PYRAZOLE DERIVATIVE INHIBITORS OF LYSYL OXIDASES AND USES THEREOF” (Pharmaxis Ltd., priority 2017, published 2020).
Structures can show the parent of a compound that is named as a salt.

Tests used:
Bovine LOX = target: T1, Bovine LOX (Bos taurus, UniProt P33072); experiment: LOX amine oxidase inhibition, peroxidase-coupled Amplex Red assay; format: biochemical; details: 30 min preincubation at 37° C., putrescine substrate
T1 sequence (P33072 170-418): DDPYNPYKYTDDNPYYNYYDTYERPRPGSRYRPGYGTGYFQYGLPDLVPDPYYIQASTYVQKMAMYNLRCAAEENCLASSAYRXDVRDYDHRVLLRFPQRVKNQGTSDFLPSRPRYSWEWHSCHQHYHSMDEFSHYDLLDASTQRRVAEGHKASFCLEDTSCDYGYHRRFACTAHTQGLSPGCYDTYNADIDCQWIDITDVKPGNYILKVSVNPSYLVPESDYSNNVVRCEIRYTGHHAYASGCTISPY
Outline: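 Bovine LOX in 1.2 M urea, 50 mM sodium borate pH 8.2 […]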

Human LOXL2 = target: T2, Human LOXL2 (Homo sapiens, UniProt Q9Y4K0); experiment: LOXL2 amine oxidase inhibition, peroxidase-coupled Amplex Red assay; format: biochemical; details: 30 min preincubation at 37° C., putrescine substrate
T2 sequence (Q9Y4K0 26-774): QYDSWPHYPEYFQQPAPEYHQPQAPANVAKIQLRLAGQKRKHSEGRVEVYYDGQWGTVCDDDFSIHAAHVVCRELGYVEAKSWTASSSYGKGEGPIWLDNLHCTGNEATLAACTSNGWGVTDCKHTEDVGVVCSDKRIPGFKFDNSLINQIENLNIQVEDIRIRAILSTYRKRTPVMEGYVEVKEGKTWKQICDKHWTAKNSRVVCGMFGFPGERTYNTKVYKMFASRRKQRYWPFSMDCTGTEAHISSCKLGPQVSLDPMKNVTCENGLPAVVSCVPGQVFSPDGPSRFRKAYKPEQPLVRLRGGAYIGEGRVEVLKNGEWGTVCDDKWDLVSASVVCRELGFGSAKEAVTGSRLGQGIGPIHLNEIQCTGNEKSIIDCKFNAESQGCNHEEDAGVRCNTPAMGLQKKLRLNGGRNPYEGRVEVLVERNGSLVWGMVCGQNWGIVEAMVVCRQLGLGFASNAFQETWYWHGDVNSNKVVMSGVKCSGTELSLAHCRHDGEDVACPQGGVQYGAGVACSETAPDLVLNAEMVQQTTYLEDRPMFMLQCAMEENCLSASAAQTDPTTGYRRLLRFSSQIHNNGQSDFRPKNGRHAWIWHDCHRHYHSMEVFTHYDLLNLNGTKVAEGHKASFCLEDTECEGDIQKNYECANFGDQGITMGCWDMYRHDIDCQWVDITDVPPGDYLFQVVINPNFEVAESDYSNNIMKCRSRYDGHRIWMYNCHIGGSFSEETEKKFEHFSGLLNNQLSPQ
Outline: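 Enzyme preincubated 30 min at 37 °C with compound (11-point curve) in 1.2 M urea, 50 mM borate pH 8.2 plus 1 μM mofegiline and 0.5 mM pargyline; putrescine at twice KM (10 mM for LOXL2), Amplex Red and HRP added. Fluorescence (565/590 nm) read every 2.5 min for 30 min; IC50 from kinetic slopes.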

| Compound | IC50 (Bovine LOX) | IC50 (Human LOXL2) |
| --- | --- | --- |
| Cc1nn(C/C(F)=C/CN)c(C(C)O)c1Cc1ccc(S(=O)(=O)N(C)C)c(Cl)c1 (single isomer, unassigned) [Compound 52, (Z)-4-((1-(4-amino-2-fluorobut-2-en-1-yl)-5-(1-hydroxyethyl)-3-methyl-1H-pyrazol-4-yl)methyl)-2-chloro-N,N-dimethylbenzenesulfonamide hydrochloride] | > 10 µM | < 1 µM |
| Cc1nn(C/C(F)=C/CN)c(C(C)O)c1Cc1ccc(S(=O)(=O)N(C)C)c(Cl)c1 (single isomer, unassigned) [Compound 53, (Z)-4-((1-(4-amino-2-fluorobut-2-en-1-yl)-5-(1-hydroxyethyl)-3-methyl-1H-pyrazol-4-yl)methyl)-2-chloro-N,N-dimethylbenzenesulfonamide hydrochloride] | > 10 µM | < 1 µM |
| N#CCCN [BAPN, β-aminopropionitrile, reference compound] | < 1 µM | < 1 µM |
| CN(C)S(=O)(=O)c1ccc(-c2cnn(C/C(F)=C/CN)c2)cc1 [Compound 1, (Z)-4-(1-(4-amino-2-fluorobut-2-en-1-yl)-1H-pyrazol-4-yl)-N,N-dimethyl benzenesulfonamide hydrochloride] | < 10 µM | < 1 µM |
| Cc1nn(C/C(F)=C/CN)c(C)c1Cc1ccc(S(=O)(=O)N(C)C)cc1 [Compound 2, (Z)-4-((1-(4-amino-2-fluorobut-2-en-1-yl)-3,5-dimethyl-1H-pyrazol-4-yl)methyl)-N,N-dimethylbenzenesulfonamide hydrochloride] | < 10 µM | < 1 µM |
| Cc1nn(C/C(F)=C/CN)c(C)c1Cc1ccc(S(=O)(=O)N(C)C)cc1Cl [Compound 3, (Z)-4-((1-(4-amino-2-fluorobut-2-en-1-yl)-3,5-dimethyl-1H-pyrazol-4-yl)methyl)-3-chloro-N,N-dimethylbenzenesulfonamide hydrochloride] | < 10 µM | < 1 µM |
| Cc1nn(C/C(F)=C/CN)c(C)c1Cc1ccc(S(C)(=O)=O)cc1 [Compound 4, (Z)-4-(3,5-dimethyl-4-(4-(methylsulfonyl)benzyl)-1H-pyrazol-1-yl)-3-fluorobut-2-en-1-amine hydrochloride] | < 10 µM | < 1 µM |
| Cc1nn(C/C(F)=C/CN)c(C)c1Cc1cccc(S(=O)(=O)N(C)C)c1 [Compound 5, (Z)-3-((1-(4-amino-2-fluorobut-2-en-1-yl)-3,5-dimethyl-1H-pyrazol-4-yl)methyl)-N,N-dimethyl benzenesulfonamide hydrochloride] | > 10 µM | < 1 µM |
| Cc1nn(C/C(F)=C/CN)c(C)c1Cc1ccc(S(=O)(=O)N2CCOCC2)cc1 [Compound 6, (Z)-4-(3,5-dimethyl-4-(4-(morpholinosulfonyl)benzyl)-1H-pyrazol-1-yl)-3-fluorobut-2-en-1-amine hydrochloride] | < 10 µM | < 1 µM |
| Cc1nn(C/C(F)=C/CN)c(C)c1Cc1ccc(S(=O)(=O)N2CCCC2)cc1 [Compound 7, (Z)-4-(3,5-dimethyl-4-(4-(pyrrolidin-1-ylsulfonyl)benzyl)-1H-pyrazol-1-yl)-3-fluorobut-2-en-1-amine hydrochloride] | < 10 µM | < 1 µM |
| Cc1nn(C/C(F)=C/CN)c(C)c1Cc1ccc(S(=O)(=O)N(C)C(C)C)cc1 [Compound 8, (Z)-4-((1-(4-amino-2-fluorobut-2-en-1-yl)-3,5-dimethyl-1H-pyrazol-4-yl)methyl)-N-isopropyl-N-methylbenzenesulfonamide hydrochloride] | < 10 µM | < 1 µM |
| Cc1nn(C/C(F)=C/CN)c(C)c1Cc1ccc(S(=O)(=O)N(C)C)c2ccccc12 [Compound 9, (Z)-4-((1-(4-amino-2-fluorobut-2-en-1-yl)-3,5-dimethyl-1H-pyrazol-4-yl)methyl)-N,N-dimethyl naphthalene-1-sulfonamide hydrochloride] | < 10 µM | < 1 µM |
| Cc1nn(Cc2ccc(S(=O)(=O)N(C)C)cc2)c(C)c1C/C(F)=C/CN [Compound 10, (Z)-4-((4-(4-amino-2-fluorobut-2-en-1-yl)-3,5-dimethyl-1H-pyrazol-1-yl)methyl)-N,N-dimethylbenzenesulfonamide hydrochloride] | < 10 µM | < 1 µM |
| Cc1nn(C/C(F)=C/CN)c(C)c1Cc1ccc(S(=O)(=O)NC(C)C)cc1 [Compound 11, (Z)-4-((1-(4-amino-2-fluorobut-2-en-1-yl)-3,5-dimethyl-1H-pyrazol-4-yl)methyl)-N-isopropyl benzenesulfonamide hydrochloride] | < 10 µM | < 1 µM |
| Cc1nn(C/C(F)=C/CN)c(C)c1Cc1ccc(S(C)(=O)=O)cc1Cl [Compound 12, (Z)-4-(4-(2-chloro-4-(methylsulfonyl)benzyl)-3,5-dimethyl-1H-pyrazol-1-yl)-3-fluorobut-2-en-1-amine hydrochloride] | < 10 µM | < 1 µM |
| CCc1nn(C/C(F)=C/CN)c(CC)c1Cc1ccc(S(=O)(=O)N(C)C)cc1 [Compound 13, (Z)-4-((1-(4-amino-2-fluorobut-2-en-1-yl)-3,5-diethyl-1H-pyrazol-4-yl)methyl)-N,N-dimethyl benzenesulfonamide hydrochloride] | < 10 µM | < 1 µM |
| Cc1nn(C/C(F)=C/CN)c(C)c1Cc1ccc(C(=O)N(C)C)cc1 [Compound 14, (Z)-4-((1-(4-amino-2-fluorobut-2-en-1-yl)-3,5-dimethyl-1H-pyrazol-4-yl)methyl)-N,N-dimethylbenzamide hydrochloride] | < 10 µM | < 10 µM |
| Cc1nn(C/C(F)=C/CN)c(C)c1Cc1ccc(S(=O)(=O)N(C)C)c(Cl)c1 [Compound 15, (Z)-4-((1-(4-amino-2-fluorobut-2-en-1-yl)-3,5-dimethyl-1H-pyrazol-4-yl)methyl)-2-chloro-N,N-dimethylbenzenesulfonamide hydrochloride] | < 10 µM | < 1 µM |
| Cc1nn(C/C(F)=C/CN)c(C)c1Cc1ccc(S(C)(=O)=O)c(Cl)c1 [Compound 16, (Z)-4-(4-(3-chloro-4-(methylsulfonyl)benzyl)-3,5-dimethyl-1H-pyrazol-1-yl)-3-fluorobut-2-en-1-amine hydrochloride] | < 10 µM | < 1 µM |
| Cc1nn(C/C(F)=C/CN)c(C)c1Cc1ccc(S(=O)(=O)N(C)C)c(OC(F)(F)F)c1 [Compound 17, (Z)-4-((1-(4-amino-2-fluorobut-2-en-1-yl)-3,5-dimethyl-1H-pyrazol-4-yl)methyl)-N,N-dimethyl-2-(trifluoromethoxy)benzenesulfonamide hydrochloride] | > 10 µM | < 1 µM |
| Cc1nn(C/C(F)=C/CN)c(C)c1Cc1ccc(S(=O)(=O)N(C)C)c(C(F)(F)F)c1 [Compound 18, (Z)-4-((1-(4-amino-2-fluorobut-2-en-1-yl)-3,5-dimethyl-1H-pyrazol-4-yl)methyl)-N,N-dimethyl-2-(trifluoromethyl)benzenesulfonamide hydrochloride] | < 10 µM | < 1 µM |
| Cc1nn(C/C(F)=C/CN)c(C)c1Cc1cc(F)c(S(=O)(=O)N(C)C)cc1F [Compound 19, (Z)-4-((1-(4-amino-2-fluorobut-2-en-1-yl)-3,5-dimethyl-1H-pyrazol-4-yl)methyl)-2,5-difluoro-N,N-dimethylbenzenesulfonamide hydrochloride] | < 10 µM | < 1 µM |
| CNS(=O)(=O)c1ccc(Cn2nc(C)c(C/C(F)=C/CN)c2C)c(Cl)c1 [Compound 20, (Z)-4-((4-(4-amino-2-fluorobut-2-en-1-yl)-3,5-dimethyl-1H-pyrazol-1-yl)methyl)-3-chloro-N-methylbenzenesulfonamide hydrochloride] | < 10 µM | < 1 µM |
| Cc1nn(Cc2ccc(S(C)(=O)=O)cc2Cl)c(C)c1C/C(F)=C/CN [Compound 21, (Z)-4-(1-(2-chloro-4-(methylsulfonyl)benzyl)-3,5-dimethyl-1H-pyrazol-4-yl)-3-fluorobut-2-en-1-amine hydrochloride] | < 10 µM | < 1 µM |
| CNS(=O)(=O)c1ccc(Cn2nc(C)c(C/C(F)=C/CN)c2C)cc1Cl [Compound 22, (Z)-4-((4-(4-amino-2-fluorobut-2-en-1-yl)-3,5-dimethyl-1H-pyrazol-1-yl)methyl)-2-chloro-N-methylbenzenesulfonamide hydrochloride] | < 10 µM | < 1 µM |
